Data set [1] relates to hUCB-MSC. As to the kind of experiment: Cellular morphology of hUCB-MSC. The format is cell-based. As to conditions: pimecrolimus 0.01 to 100 ng/ml, 3 days; FIG. 2D. The method, then: Next, the stem cells (hUCB-MSC) were cultured and treated with various concentrations of pimecrolimus for 3 days, and then the change in cellular morphology of hUCB-MSC were compared (FIG. 2D).

Data set [2] relates to PBMC cells treated with Concanavalin A (ConA). In words: MLR analysis, immunosuppressive activity on ConA-treated PBMC. The format is cell-based. The method, then: PBMC cells treated with Concanavalin A (ConA) were cultured and treated with pimecrolimus and mesenchymal stem cells (hUCB-MSC) individually or in combination, and then the immunosuppressive activity measured in each experimental group was compared (FIG. 3). In particular, PBMC cells that were not treated with ConA, not co-cultured with hUCB-MSC, and not treated with pimecrolimus were used as the negative control (NC), and as the positive control (PC) treated with ConA, PBMC cells that were not co-cultured with hUCB-MSC and not treated with pimecrolimus were used as the positive control (PC).
Specifically, PBMC cells treated with Concanavalin A (ConA) were cultured and treated with pimecrolimus and hUCB-MSC individually or in combination, and then the immunosuppressive activity measured in each experimental group was compared.
In particular, 10 experimental groups were set according to the combination pattern of pimecrolimus and hUCB-MSC (Table 1)

The test system of data set [3] is hUCB-MSC. In words: Cell cycle analysis of hUCB-MSC. As to conditions: pimecrolimus 0.01 to 100 ng/ml, 3 days; FIG. 2C. It is filed as cell-based. The method, then:
Next, the stem cells (hUCB-MSC) were cultured and treated with various concentrations of pimecrolimus for 3 days, and then the change in cell cycle profile of hUCB-MSC were compared using cell cycle analysis (FIG. 2C).

The test system of data set [4] is hUCB-MSC surface markers (CD45, CD34, CD36, CD105, CD29, CD73). As to the kind of experiment: Flow cytometry of surface markers of hUCB-MSC. It is filed as cell-based. As to conditions: pimecrolimus 100 ng/ml, 3 days, FIG. 2E. The procedure: Lastly, the stem cells (hUCB-MSC) were cultured and treated with 100 ng/ml of pimecrolimus for 3 days, and then the expression levels of surface markers (CD45, CD34, CD36, CD105, CD29, CD73) of hUCB-MSC were compared using flow cytometry. (FIG. 2E).
In general terms: In flow cytometry, cells or beads pass a laser one at a time.

Data set [5] relates to COX2 expressed in hUCB-MSCs. In words: Western blot of COX2 in hUCB-MSC lysate. The format is cell-based. The settings on record: pimecrolimus 0.01 to 100 ng/ml, 72 hours, GAPDH internal control, FIG. 4C. The method, then:
hUCB-MSCs treated with pimecrolimus were obtained according to the method of Example 3-2, centrifuged to collect the precipitated cells, and then disrupted to obtain cell lysate. Subsequently, Western blot analysis was performed using the thus-obtained cell lysate and COX2 antibodies (FIG. 4C). In particular, GAPDH was used as an internal control.
Background: In western blotting, separated proteins are transferred to a membrane and probed.

The subject of data set [6] is TGF-β expressed in hUCB-MSCs. As to the kind of experiment: TGF-β ELISA of hUCB-MSC supernatant. The format is cell-based, human. The settings on record: pimecrolimus 0.01 to 100 ng/ml, 72 hours, FIG. 4A. The procedure: (§1) Specifically, hUCB-MSCs were seeded in a 6-well cell culture plate at a density of 1.5×10^5 cells per well. After 24 hours of incubation, hUCB-MSCs were treated with pimecrolimus at various concentrations and further incubated for 72 hours. After the incubation was completed, the supernatant was collected by centrifugation and the thus-obtained supernatant was applied to Human […] Quantikine ELISA (R&D Systems, Minneapolis, MN, USA) and Human PGE2. Quantikine ELISA (R&D Systems) to analyze the expression level of TGF-β or prostaglandin E2 (PGE2) (FIGS. 4A and 4B).
On the technique in general: ELISA stands for enzyme-linked immunosorbent assay.

Data set [7] concerns hUCB-MSC. In words: Proliferative capacity of hUCB-MSC. The format is cell-based. The settings on record: pimecrolimus 0.01 to 100 ng/ml, 3 days; FIG. 2B. The method, then: Next, the stem cells (hUCB-MSC) were cultured and treated with various concentrations of pimecrolimus for 3 days, and then the change in proliferative capacity of hUCB-MSC were compared (FIG. 2B).
In data set [8] the test system is PGE2 expressed in hUCB-MSCs. As to the kind of experiment: PGE2 ELISA of hUCB-MSC supernatant. As to conditions: pimecrolimus 0.01 to 100 ng/ml, 72 hours, FIG. 4B. It is filed as cell-based, human. The method, then:
as §1

For data set [9], the system named is hUCB-MSC. As to the kind of experiment: MTT assay, cell viability of hUCB-MSC. The format is cell-based. As to conditions: pimecrolimus various concentrations, 3 days, FIG. 2A. The method, then:
First, the stem cells (hUCB-MSC) were cultured and treated with various concentrations of pimecrolimus for 3 days, and then the change in cell viability of hUCB-MSC were compared using the MTT assay (FIG. 2A).

“Also recorded” adds a separate entry of the source.

Take `CC[C@@H]1/C=C(\C)C[C@H](C)C[C@H](OC)[C@H]2O[C@@](O)(C(=O)C(=O)N3CCCC[C@H]3C(=O)O[C@H](/C(C)=C/[C@@H]3CC[C@H](Cl)[C@H](OC)C3)[C@H](C)[C@@H](O)CC1=O)[C@H](C)C[C@@H]2OC` [pimecrolimus]: the “change in cellular morphology of hUCB-MSC” value in data set [1] is given as “did not change the cellular morphology”. Also, the “immune activity of ConA-treated PBMC (immunosuppressive activity)” value in [2] (Example 3-1, treated individually or in combination, versus ConA positive control, FIG. 3) was “the immune activity was suppressed”. Also, the “immunosuppressive activity, separate treatment” value in [2] (each treated alone, 3 to 7 days or 5 to 7 days (Experimental Groups 2 and 3; 5 and 9), FIG. 5A) is “comparatively superior over the immunosuppressive activity of hUCB-MSCs”. Also, the “change in cell cycle profile of hUCB-MSC” value in [3] is on record as “did not change the cell cycle profile”. For the same molecule, in data set [4], the “expression levels of surface markers of hUCB-MSC” value is “did not change the expression levels of surface markers”. Besides, the “level of COX2 expressed in hUCB-MSCs” value in data set [5] was “rapidly reduced in proportion to the treatment concentrations; also recorded: inhibit the expression of COX2”. Also, the “level of TGF-β expressed in hUCB-MSCs” value in [6] was “did not show a significant change”. Moreover, the “change in proliferative capacity of hUCB-MSC” value in [7] is listed as “did not change the proliferative capacity”. The “level of PGE2 expressed in hUCB-MSCs” value in [8] is “rapidly reduced in proportion to the treatment concentrations”. Besides, the “change in cell viability of hUCB-MSC” value in data set [9] is “did not change the cell viability”.
